Test results as given in patent US10472395B2, “Cyclic peptide analogs and conjugates thereof” (Sirenas LLC, priority 2015, dated 2019).
Like-named read-outs stand apart in the source and are kept apart here. Numbered stars: 1 amine (or outer) side, 2 acyl side, 3 side chain; on linkers, the order of the positions; unused ones are H or OH. Bridge positions count the residues as written; N and C are the ends. Square brackets hold non-standard residues; d marks the D form. Peptide text beside a SMILES is read from it. ξ: configuration not given here. X4 = C/C=C(\C)[C@@H](N[*:1])[C@@H](C)[C@H](O)C/C=C(\C)C(=O)O[C@H](CC(C)C)C(=O)[*:2]; X6 = C/C=C(\C)[C@@H](O[*:2])[C@@H](C)[C@H](C/C=C(\C)C(=O)[*:1])OCSC; X3 = C/C=C(\C)[C@@H](O[*:2])[C@@H](C)[C@@H](O)C/C=C(\C)C(=O)[*:1]; X10 = C/C(=C\CCCCO[*:2])C(=O)[*:1]; X11 = C/C(=C\CCO[*:2])C(=O)[*:1]; X9 = C/C(=C\CCCO[*:2])C(=O)[*:1]; aIle = CC[C@@H](C)[C@H](N)C(=O)O; dNMeF = CN[C@H](Cc1ccccc1)C(=O)O; Ile(3ξ) = CCC(C)[C@H](N)C(=O)O; dHica = CC(C)C[C@@H](O)C(=O)O; dHiv = CC(C)[C@@H](O)C(=O)O; NMeA = CN[C@@H](C)C(=O)O; dAbu = CC[C@@H](N)C(=O)O; dNMeA = CN[C@H](C)C(=O)O; Abu = CC[C@H](N)C(=O)O; Aib = CC(C)(N)C(=O)O; Sar = CNCC(=O)O

Key:
[1] = system: BT-474 human mammary gland ductal carcinoma cells; assay: Inhibitory response of test compounds against BT-474 cells (Cell Titer-Glo, 72 h); format: cell-based
Experimental: (§1) BT-474 human mammary gland ductal carcinoma cells were seeded in a clear polystyrene 96-well microculture plate (Corning® Costar® 96-well flat bottom plate, Cat.#3997) in a total volume of 90 μL/well. After 24 hours of incubation in a humidified incubator at 37° C. with 5% CO2 and 95% air, 10 μL of 10×, serially diluted test agents in growth medium were added to each well (10 pt dose response curve, highest concentration 10 μM of test agent). After 72 hours of culture in a humidified incubator at 37° C., in an atmosphere of 5% CO2 and 95% air, the plated cells and Cell Titer-Glo® (Promega G7571) reagents were brought to room temperature to equilibrate for 30 minutes. 100 μL of Cell Titer-Glo® reagent was added to each well. The plate was shaken for two minutes and then left to equilibrate for ten minutes. The media/Cell Titer-Glo® reagent was transferred to a white polystyrene 96-well microculture plate (Corning® Costar® 96-well flat bottom plate, Cat.#3917) before reading luminescence on a Tecan GENios microplate reader.
(§2) Percent inhibition of cell growth was calculated relative to untreated control wells. The IC50 value for the test agents was determined using Prism 6.05 by curve-fitting of the data using the following four parameter-logistic equation:
(§3) [formula] where Top is the maximal % of control absorbance, Bottom is the minimal % of control absorbance at the highest agent concentration, Y is the % of control absorbance, X is the agent concentration, IC50 is the concentration of agent that inhibits cell growth by 50% compared to the control cells, and n is the slope of the curve.

HCC1954 cells = assay: Inhibitory response of test compounds against HCC1954 cells (method analogous to BT-474); format: cell-based; conditions: Homo sapiens
Experimental: as §1, §2, §3
Inhibitory response of test compounds against HCC1954 cells was determined using a method analogous to that used for BT-474 cells.

SMILES	IC50 ([1]; Homo sapiens) [µM]	further results
CCC(C)[C@@H]1NC(=O)CN(C)C(=O)[C@@H](Cc2ccccc2)N(C)C(=O)[C@H](C)NC(=O)[C@@H](CC(C)C)OC(=O)/C(C)=C/CCCOC(=O)[C@H](C)NC1=O (some centres unmarked) [Compound 4] ([dHica]A[dNMeF][Sar][Ile(3ξ)]A; linker N-C via X9)	> 10	
CCC(C)[C@@H]1NC(=O)CN(C)C(=O)[C@@H](Cc2ccccc2)N(C)C(=O)[C@H](C)NC(=O)[C@@H](CC(C)C)OC(=O)/C(C)=C/CCCOC(=O)[C@@H](C)NC1=O (some centres unmarked) [Compound 5] ([dHica]A[dNMeF][Sar][Ile(3ξ)][dA]; linker N-C via X9)	> 10	
CCC(C)[C@@H]1NC(=O)CN(C)C(=O)[C@@H](Cc2ccccc2)N(C)C(=O)[C@H](C)NC(=O)[C@@H](CC(C)C)OC(=O)/C(C)=C/CCCOC(=O)[C@H](C)N(C)C1=O (some centres unmarked) [Compound 9] ([dHica]A[dNMeF][Sar][Ile(3ξ)][NMeA]; linker N-C via X9)	> 10	
CCC(C)[C@@H]1NC(=O)CN(C)C(=O)[C@@H](Cc2ccccc2)N(C)C(=O)[C@H](C)NC(=O)[C@@H](CC(C)C)OC(=O)/C(C)=C/CCCOC(=O)[C@@H](C)N(C)C1=O (some centres unmarked) [Compound 10] ([dHica]A[dNMeF][Sar][Ile(3ξ)][dNMeA]; linker N-C via X9)	> 10	
CCC(C)[C@@H]1NC(=O)CN(C)C(=O)[C@@H](Cc2ccccc2)N(C)C(=O)[C@H](C)NC(=O)[C@@H](CC(C)C)OC(=O)/C(C)=C/CCCOC(=O)[C@H](CCCCNC(=O)OC(C)(C)C)NC1=O (some centres unmarked) [Compound 11]	> 10	
CCC(C)[C@@H]1NC(=O)CN(C)C(=O)[C@@H](Cc2ccccc2)N(C)C(=O)[C@H](C)NC(=O)[C@@H](CC(C)C)OC(=O)/C(C)=C/CCOC(=O)[C@@H](C)NC1=O (some centres unmarked) [Compound 12] ([dHica]A[dNMeF][Sar][Ile(3ξ)][dA]; linker N-C via X11)	> 10	
CCC(C)[C@@H]1NC(=O)CN(C)C(=O)[C@@H](Cc2ccccc2)N(C)C(=O)[C@H](C)NC(=O)[C@@H](CC(C)C)OC(=O)/C(C)=C/CCCCOC(=O)[C@@H](C)NC1=O (some centres unmarked) [Compound 13] ([dHica]A[dNMeF][Sar][Ile(3ξ)][dA]; linker N-C via X10)	> 10	
CCC(C)[C@@H]1NC(=O)CN(C)C(=O)[C@@H](Cc2ccccc2)N(C)C(=O)[C@H](C)NC(=O)[C@@H](CC(C)C)OC(=O)/C(C)=C/CCCCOC(=O)[C@@H](C)N(C)C1=O (some centres unmarked) [Compound 14] ([dHica]A[dNMeF][Sar][Ile(3ξ)][dNMeA]; linker N-C via X10)	> 10	
CCC(C)[C@@H]1NC(=O)CN(C)C(=O)[C@@H](Cc2ccccc2)N(C)C(=O)[C@H](C)NC(=O)[C@@H](CC(C)C)OC(=O)/C(C)=C/CCCCOC(=O)[C@H](C)NC1=O (some centres unmarked) [Compound 17] ([dHica]A[dNMeF][Sar][Ile(3ξ)]A; linker N-C via X10)	0.2 to 10	
C/C=C(\C)[C@H]1NC(=O)[C@@H](C)NC(=O)[C@H](C(C)CC)NC(=O)CN(C)C(=O)[C@@H](Cc2ccccc2)N(C)C(=O)[C@H](C)NC(=O)[C@@H](CC(C)C)OC(=O)/C(C)=C/C[C@@H](O)[C@@H]1C (some centres unmarked) [Compound 19] (cyclo(A[dNMeF][Sar][Ile(3ξ)][dA][X4]))	> 10	IC50 ([1]; Homo sapiens, 72 h, Cell Titer-Glo, highest concentration 10 μM): > 10 µM
C/C=C(\C)[C@H]1OC(=O)[C@@H](C)NC(=O)[C@H](C(C)CC)NC(=O)CN(C)C(=O)[C@@H](Cc2ccccc2)N(C)C(=O)[C@H](C)NC(=O)[C@@H](CC(C)C)OC(=O)/C(C)=C/C[C@H](O)[C@H]1C (some centres unmarked) [Compound 20]	0.2 to 10	IC50 ([1]; Homo sapiens, 72 h, Cell Titer-Glo): 0.389 µM
C/C=C(\C)[C@H]1OC(=O)[C@@H](C)NC(=O)[C@H](C(C)CC)NC(=O)CN(C)C(=O)[C@@H](Cc2ccc(Cl)cc2)N(C)C(=O)[C@H](C)NC(=O)[C@@H](CC(C)C)OC(=O)/C(C)=C/C[C@H](O)[C@@H]1C (some centres unmarked) [Compound 21]	< 0.02	IC50 (HCC1954 cells): < 20 nM
CCC(C)[C@@H]1NC(=O)CN(C)C(=O)[C@@H](Cc2ccccc2)N(C)C(=O)[C@H](C)NC(=O)[C@@H](CC(C)C)OC(=O)/C(C)=C/CCCOC(=O)[C@H](CCCCN)NC1=O (some centres unmarked) [Compound 60] ([dHica]A[dNMeF][Sar][Ile(3ξ)]K; linker N-C via X9)	> 10	
C/C=C(\C)[C@H]1OC(=O)[C@@H](C)NC(=O)[C@H]([C@H](C)CC)NC(=O)CN(C)C(=O)[C@@H](Cc2ccc(Cl)cc2)N(C)C(=O)[C@H](C)NC(=O)[C@@H](CC(C)C)OC(=O)/C(C)=C/C[C@H](OCSC)[C@@H]1C [Compound 61]	< 0.02	
C/C=C(\C)[C@H]1OC(=O)[C@@H](C)NC(=O)[C@H](C(C)CC)NC(=O)CN(C)C(=O)[C@@H](Cc2ccccc2)N(C)C(=O)[C@H](C)NC(=O)[C@@H](CC(C)C)NC(=O)/C(C)=C/C[C@H](O)[C@@H]1C (stereo partly drawn) [Compound 63] ([dL]A[dNMeF][Sar][Ile(3ξ)][dA]; linker N-C via X3)	< 0.02	IC50 (HCC1954 cells): 20 to 200 nM
C/C=C(\C)[C@H]1OC(=O)[C@@H](C)NC(=O)[C@H](C(C)CC)NC(=O)CN(C)C(=O)[C@@H](Cc2ccccc2)N(C)C(=O)[C@H](C)NC(=O)[C@@H](Cc2ccccc2)NC(=O)/C(C)=C/C[C@H](O)[C@@H]1C (some centres unmarked) [Compound 64] ([dF]A[dNMeF][Sar][Ile(3ξ)][dA]; linker N-C via X3)	< 0.02	IC50 (HCC1954 cells): 20 to 200 nM
C/C=C(\C)[C@H]1OC(=O)[C@@H](C)NC(=O)[C@H](C(C)CC)NC(=O)CN(C)C(=O)[C@@H](Cc2ccccc2)N(C)C(=O)[C@H](C)NC(=O)[C@@H](CC(C)C)OC(=O)/C(C)=C/C=C/[C@@H]1C (some centres unmarked) [Compound 69]	< 0.02	IC50 (HCC1954 cells): < 20 nM
C/C=C(\C)[C@H]1OC(=O)[C@@H](C)NC(=O)[C@H]([C@H](C)CC)NC(=O)CN(C)C(=O)[C@@H](Cc2ccccc2)N(C)C(=O)[C@H](C)NC(=O)[C@@H](CC(C)C)OC(=O)/C(C)=C/C[C@H](OC(=O)N(C)CCNC)[C@@H]1C [Compound 75]	< 0.02	IC50 (HCC1954 cells): < 20 nM
CCC(C)[C@@H]1NC(=O)CN(C)C(=O)[C@@H](Cc2ccccc2)N(C)C(=O)[C@H](C)NC(=O)[C@@H](CC(C)C)OC(=O)/C(C)=C/CCCCOC(=O)[C@@H](CC)NC1=O (some centres unmarked) [Compound 77] ([dHica]A[dNMeF][Sar][Ile(3ξ)][dAbu]; linker N-C via X10)	> 10	
CCC(C)[C@@H]1NC(=O)CN(C)C(=O)[C@@H](Cc2ccccc2)N(C)C(=O)[C@H](C)NC(=O)[C@@H](CC(C)C)OC(=O)/C(C)=C/CCCCOC(=O)[C@H](CC)NC1=O (some centres unmarked) [Compound 78] ([dHica]A[dNMeF][Sar][Ile(3ξ)][Abu]; linker N-C via X10)	0.2 to 10	
CCC(C)[C@@H]1NC(=O)CN(C)C(=O)[C@@H](Cc2ccccc2)N(C)C(=O)[C@H](C)NC(=O)[C@@H](CC(C)C)OC(=O)/C(C)=C/CCCCOC(=O)CNC1=O (some centres unmarked) [Compound 79] ([dHica]A[dNMeF][Sar][Ile(3ξ)]G; linker N-C via X10)	> 10	
CCC(C)[C@@H]1NC(=O)CN(C)C(=O)[C@@H](Cc2ccccc2)N(C)C(=O)[C@H](C)NC(=O)[C@@H](C(C)C)OC(=O)/C(C)=C/CCCCOC(=O)[C@@H](CC)NC1=O (some centres unmarked) [Compound 80] ([dHiv]A[dNMeF][Sar][Ile(3ξ)][dAbu]; linker N-C via X10)	> 10	
CCC(C)[C@@H]1NC(=O)CN(C)C(=O)[C@@H](Cc2ccccc2)N(C)C(=O)[C@H](C)NC(=O)[C@@H](C(C)C)OC(=O)/C(C)=C/CCCCOC(=O)C(C)(C)NC1=O (some centres unmarked) [Compound 81] ([dHiv]A[dNMeF][Sar][Ile(3ξ)][Aib]; linker N-C via X10)	0.2 to 10	
C/C=C(\C)[C@H]1OC(=O)[C@@H](CCCCNC(=O)OC(C)(C)C)NC(=O)[C@H]([C@H](C)CC)NC(=O)CN(C)C(=O)[C@@H](Cc2ccccc2)N(C)C(=O)[C@H](C)NC(=O)[C@@H](CC(C)C)OC(=O)/C(C)=C/C[C@H](CCSC)[C@@H]1C [Compound 82]	< 0.02	IC50 (HCC1954 cells): 20 to 200 nM
C/C=C(\C)[C@H]1OC(=O)[C@@H](CCCCN)NC(=O)[C@H]([C@H](C)CC)NC(=O)CN(C)C(=O)[C@@H](Cc2ccccc2)N(C)C(=O)[C@H](C)NC(=O)[C@@H](CC(C)C)NC(=O)/C(C)=C/C[C@H](OCSC)[C@@H]1C [Compound 83] ([dL]A[dNMeF][Sar][aIle][dK]; linker N-C via X6)	> 10	IC50 (HCC1954 cells): > 10000 nM
C/C=C(\C)[C@H]1OC(=O)[C@@H](CCCCN)NC(=O)[C@H](C(C)CC)NC(=O)CN(C)C(=O)[C@@H](Cc2ccccc2)N(C)C(=O)[C@H](C)NC(=O)[C@@H](CC(C)C)OC(=O)/C(C)=C/C[C@H](O)[C@@H]1C (some centres unmarked) [Compound 84]	0.2 to 10	IC50 (HCC1954 cells): 200 to 10000 nM
C/C=C(\C)[C@H]1OC(=O)[C@@H](C)NC(=O)[C@H]([C@H](C)CC)NC(=O)CN(C)C(=O)[C@@H](Cc2ccc(Cl)cc2)N(C)C(=O)[C@H](CCCCNC(=O)c2ccc(C(C)=O)cc2)NC(=O)[C@@H](CC(C)C)OC(=O)/C(C)=C/CC[C@@H]1C [Compound 121]	0.2 to 10	
C/C=C(\C)[C@H]1OC(=O)[C@@H](C)NC(=O)[C@H]([C@H](C)CC)NC(=O)CN(C)C(=O)[C@@H](Cc2ccccc2)N(C)C(=O)[C@H](C)NC(=O)[C@@H](CC(C)C)OC(=O)/C(C)=C/C[C@H](OC(=O)NCCCOCCOCCOCCCNC(=O)c2ccc(/C(C)=N\NC(=O)CCCCCN3C(=O)C=CC3=O)cc2)[C@@H]1C [Compound L13]		IC50 [1]: 0.02 to 0.2 µM
